Consider 30 compounds from patent US11358962B2, “2-hetaryl imidazol[1,2-a]pyridine derivatives” (Hoffmann-La Roche Inc., priority 2013, dated 2022).

The test system of this experiment is native tau aggregates. Kind of experiment: TAU radioligand in vitro displacement assay ([3H]T808, autoradiography on human AD brain sections). The experiment is classed as binding. Particulars: compound 10 nM, radioligand [3H]T808 10 nM. The text has this:
TAU Radioligand-In-Vitro Displacement Assay
This in vitro binding assay assesses the affinity of compounds for native tau aggregates.
AD human brains are purchased from Banner Sun Health Research Institute (Sun City, Ariz., USA). Pathological diagnosis of AD is made according to standard NIA-Reagan Institute criteria based on neuropathological data. The radioligand [^3H]T808 was synthesized in-house ([^3H]-2-[4-(2-Fluoro-ethyl)-piperidin-1-yl]-benzo[4,5]imidazo[1,2-a]pyrimidine, radiochemical purity 99.0%). As a reference cold T808 is used (2-[4-(2-Fluoro-ethyl)-piperidin-1-yl]-benzo[4,5]imidazo[1,2-a]pyrimidine). For the autoradiography FujiFilm Imaging Plates (BAS-IP TR 2025) are exposed to the sections and read with a FujiFilm IP reader (BAS-5000).
Ten μm thick human AD brain sections are generated with a cryostat (Leica CM3050) at −17° C. chamber temperature and −15° C. object temperature. Sections are transferred to Histobond+ microscope slides (Marienfeld Laboratory Glasware). After drying for 3 hours at room temperature the sections are stored at −20° C. The sections are incubated with the radioligand (10 nM) and the respective cold compound (at various concentrations) in 50 mM Tris buffer, pH 7.4 at room temperature for 30 min. After washing 3× 10 min at 4° C. in 50 mM Tris buffer, pH 7.4 and 3 quick dips in H2O dist. at 4° C. the sections are dried at 4° C. for 3 h. The sections are placed in a FujiFilm Cassette (BAS 2025), exposed with an Imaging Plate for five days and afterwards scanned with a resolution of […].
The signal intensity (Dens−PSL/mm2) in the region of interest (ROI) of the autoradiogram is quantified with the software MCID analysis (version 7.0, Imaging Research Inc.). The specific binding (SB) of [^3H]T808 binding in absence or in presence of a compound is calculated by subtracting the non-specific binding signal in the white matter, thus yielding SB[3H]T808 only and SBcompound. The % displacement by the various compounds is calculated as following: % displacement=100−(SBcompound/SB[3H]T808 only)*100. Validation Data
In each experiment cold T808 is used as a positive internal control. Co-incubation of equimolar amounts of hot and cold T808 is expected to reduce specific binding by approximately 50%.
In the case of `Cc1ccc(-c2cn3ccc(NCCF)cc3n2)cc1C` [Example 72, [2-(3,4-Dimethyl-phenyl)-imidazo[1,2-a]pyridin-7-yl]-(2-fluoro-ethyl)-amine], the “% displacement of [3H]T808 (10 nM) at 10 nM” value (“% displacement of [3H]T808” for short) amounted to 25%.

`COc1ccc(-c2cn3ccc(NCCF)cc3n2)cc1OC` [Example 73, [2-(3,4-Dimethoxy-phenyl)-imidazo[1,2-a]pyridin-7-yl]-(2-fluoro-ethyl)-amine]: the “% displacement of [3H]T808” value worked out at 21%.

In the case of `CNc1ccn2cc(-c3ccc(OC)cc3)nc2c1` [Example 74, [2-(4-Methoxy-phenyl)-imidazo[1,2-a]pyridin-7-yl]-methyl-amine], the “% displacement of [3H]T808” value is 44%.

As for `COc1ccc(-c2cn3ccc(NCCF)cc3n2)cc1` [Example 75, (2-Fluoro-ethyl)-[2-(4-methoxy-phenyl)-imidazo[1,2-a]pyridin-7-yl]-amine], the “% displacement of [3H]T808” value came to 42%.

Take `COc1cccc(-c2cn3ccc(NCCF)cc3n2)c1` [Example 76, (2-Fluoro-ethyl)-[2-(3-methoxy-phenyl)-imidazo[1,2-a]pyridin-7-yl]-amine]: the “% displacement of [3H]T808” value stood at 31%.

Regarding `COc1ccc(-c2cn3ccc(N4CCC(CCF)CC4)cc3n2)cc1` [Example 77, 7-[4-(2-Fluoro-ethyl)-piperidin-1-yl]-2-(4-methoxy-phenyl)-imidazo[1,2-a]pyridine], the “% displacement of [3H]T808” value was found to be 27%.

Regarding `CN(C)c1ccn2cc(-c3cccc(OCF)c3)nc2c1` [Example 78, [2-(3-Fluoromethoxy-phenyl)-imidazo[1,2-a]pyridin-7-yl]-dimethyl-amine], the “% displacement of [3H]T808” value came out at 53%.

For the compound `CSc1ccc(-c2cn3ccc(NCCF)cc3n2)cc1` [Example 79, (2-Fluoro-ethyl)-[2-(4-methylsulfanyl-phenyl)-imidazo[1,2-a]pyridin-7-yl]-amine], the “% displacement of [3H]T808” value amounted to 20%.

Consider `FCOc1ccc(-c2cn3ccc(NC4CC4)cc3n2)cc1` [Example 80, Cyclopropyl-[2-(4-fluoromethoxy-phenyl)-imidazo[1,2-a]pyridin-7-yl]-amine], for which the “% displacement of [3H]T808” value was 34%.

Take `CNc1ccn2cc(-c3ccc(O)c(OC)c3)nc2c1` [Example 81, 2-Methoxy-4-(7-methylamino-imidazo[1,2-a]pyridin-2-yl)-phenol]: the “% displacement of [3H]T808” value was determined as 47%.

Regarding `Br.CN(C)c1ccn2cc(-c3cccc(O)c3)nc2c1` [Example 82, 3-(7-Dimethylamino-imidazo[1,2-a]pyridin-2-yl)-phenol hydrobromide], the “% displacement of [3H]T808” value came out at 49%.

In the case of `CC(=O)O.COc1cccc(-c2cn3ccc(N(C)CCF)cc3n2)c1` [Example 83, N-(2-fluoroethyl)-2-(3-methoxyphenyl)-N-methylimidazo[1,2-a]pyridin-7-amine, acetic acid adduct], the “% displacement of [3H]T808” value came out at 32%.

With `FC1CCN(c2ccn3cc(-c4ccc5c(c4)OCCO5)nc3c2)CC1` [Example 84, 2-(2,3-Dihydro-benzo[1, 4]dioxin-6-yl)-7-(4-fluoro-piperidin-1-yl)-imidazo[1,2-a]pyridine], the “% displacement of [3H]T808” value amounted to 26%.

On to `Cc1cccc(-c2cn3ccc(N4CCC(CCF)CC4)cc3n2)c1` [Example 85, 7-[4-(2-Fluoro-ethyl)-piperidin-1-yl]-2-m-tolyl-imidazo[1,2-a]pyridine], for which the “% displacement of [3H]T808” value was 17%.

Turning to `CO[C@@H]1CCN(c2ccn3cc(-c4cccc(C)c4)nc3c2)C1` [Example 86, 7-((R)-3-Methoxy-pyrrolidin-1-yl)-2-m-tolyl-imidazo[1,2-a]pyridine], the “% displacement of [3H]T808” value is on record as 33%.

On to `Cc1ccc(-c2cn3ccc(N4CCC(CCF)CC4)cc3n2)cc1` [Example 87, 7-[4-(2-Fluoro-ethyl)-piperidin-1-yl]-2-p-tolyl-imidazo[1,2-a]pyridine], for which the “% displacement of [3H]T808” value is 5%.

Take `CO[C@H]1CCN(c2ccn3cc(-c4ccc(C)cc4)nc3c2)C1` [Example 88, 7-((S)-3-Methoxy-pyrrolidin-1-yl)-2-p-tolyl-imidazo[1,2-a]pyridine]: the “% displacement of [3H]T808” value amounted to 34%.

For the compound `CNc1ccn2cc(-c3ccc(CO)cc3)nc2c1` [Example 89, [4-[7-(Methylamino)imidazo[1,2-a]pyridin-2-yl]phenyl]methanol acetic acid adduct], the “% displacement of [3H]T808” value amounted to 54%.

In the case of `CN(C)c1ccn2cc(-c3ccc(CO)cc3)nc2c1` [Example 90, [4-[7-(Dimethylamino)imidazo[1,2-a]pyridin-2-yl]phenyl]methanol acetic acid adduct], the “% displacement of [3H]T808” value is recorded as 32%.

On to `COc1cccc(-c2cn3ccc(N4CCC4)cc3n2)c1` [Example 91, 7-(azetidin-1-yl)-2-(3-methoxyphenyl)imidazo[1,2-a]pyridine], for which the “% displacement of [3H]T808” value stood at 39%.

Regarding `CNc1ccn2cc(-c3cc(OC)cc(OC)c3)nc2c1` [Example 92, 2-(3,5-dimethoxyphenyl)-N-methylimidazo[1,2-a]pyridin-7-amine], the “% displacement of [3H]T808” value amounted to 25%.

Regarding `CC(=O)O.CCOc1ccc(-c2cn3ccc(NC)cc3n2)cc1` [Example 93, N-[2-(4-Ethoxy-phenyl)-imidazo[1,2-a]pyridin-7-yl]-methyl-amine acetic acid adduct], the “% displacement of [3H]T808” value is listed as 39%.

Regarding `CC(=O)O.CNc1ccn2cc(-c3ccc(N4CCCC4)cc3)nc2c1` [Example 94, Methyl-[2-(4-pyrrolidin-1-yl-phenyl)-imidazo[1,2-a]pyridin-7-yl]-amine acetic acid adduct], the “% displacement of [3H]T808” value amounted to 18%.

`CNc1ccn2cc(-c3ccc(OC)c(F)c3)nc2c1` [Example 95, N-[2-(3-Fluoro-4-methoxy-phenyl)-imidazo[1,2-a]pyridin-7-yl]-methyl-amine]: the “% displacement of [3H]T808” value came to 55%.

Turning to `CNc1ccn2cc(-c3ccc4c(c3)OCCCO4)nc2c1` [Example 96, N-[2-(3,4-Dihydro-2H-benzo[b][1,4]dioxepin-7-yl)-imidazo[1,2-a]pyridin-7-yl]-methyl-amine], the “% displacement of [3H]T808” value came to 35%.

Turning to `CCN(CC)c1ccc(-c2cn3ccc(NC)cc3n2)cc1` [Example 97, N-[2-(4-Diethylamino-phenyl)-imidazo[1,2-a]pyridin-7-yl]-methyl-amine], the “% displacement of [3H]T808” value turned out to be 18%.

Regarding `CCc1ccc(-c2cn3ccc(NC)cc3n2)cc1` [Example 98, N-[2-(4-Ethyl-phenyl)-imidazo[1,2-a]pyridin-7-yl]-methyl-amine], the “% displacement of [3H]T808” value is recorded as 38%.

Turning to `COCc1ccc(-c2cn3ccc(N(C)C)cc3n2)cc1` [Example 99, 2-[4-(Methoxymethyl)phenyl]-N,N-dimethyl-imidazo[1,2-a]pyridin-7-amine acetic acid adduct], the “% displacement of [3H]T808” value is 37%.

With `CNc1ccn2cc(-c3ccsc3)nc2c1` [Example 100, Methyl-(2-thiophen-3-yl-imidazo[1,2-a]pyridin-7-yl)-amine], the “% displacement of [3H]T808” value is 59%.

Regarding `CNc1ccn2cc(-c3ccco3)nc2c1` [Example 101, N-(2-Furan-2-yl-imidazo[1,2-a]pyridin-7-yl)-methyl-amine], the “% displacement of [3H]T808” value came to 50%.
